Tests used:
Type in all cases: functional
A498 [1] = experiment: Growth inhibition of human A498 cells assessed as cell growth at 1 mM after 48 hrs by SRB assay; conditions: A498, 48 h, read-out: Activity
HCT-116 [2] = experiment: Growth inhibition of human HCT116 cells assessed as cell growth at 1 mM after 48 hrs by SRB assay; conditions: HCT-116, 48 h, read-out: Activity
NCI-H522 [3] = experiment: Growth inhibition of human NCI-H522 cells assessed as cell growth at 1 uM after 48 hrs by SRB assay; conditions: NCI-H522, 48 h, read-out: Activity
CAKI-1 = experiment: Growth inhibition of human Caki1 cells assessed as cell growth at 100 uM after 48 hrs by SRB assay; conditions: CAKI-1, 48 h, read-out: Activity
ACHN = experiment: Growth inhibition of human ACHN cells after 48 hrs by […] growth inhibition assay
[4] = Growth inhibition of human Hs 578T cells assessed as cell growth at 10 uM after 48 hrs by SRB assay; conditions: read-out: Activity
RXF 393 [5] = experiment: Growth inhibition of human RXF393 cells assessed as cell growth at 0.1 uM after 48 hrs by SRB assay; conditions: RXF 393, 48 h, read-out: Activity
SF-295 [6] = experiment: Growth inhibition of human SF295 cells assessed as cell growth at 1 mM after 48 hrs by SRB assay; conditions: SF-295, 48 h, read-out: Activity
TK-10 = experiment: Growth inhibition of human TK10 cells after 48 hrs by […] growth inhibition assay; conditions: TK-10, 48 h
NCI-H226 [7] = experiment: Growth inhibition of human NCI-H226 cells assessed as cell growth at 100 uM after 48 hrs by SRB assay; conditions: NCI-H226, 48 h, read-out: Activity
NCI-H322M [8] = experiment: Growth inhibition of human NCI-H322M cells after 48 hrs by […] growth inhibition assay
MDA-MB-435 = experiment: Growth inhibition of human MDA-MB-435 cells after 48 hrs by SRB assay; conditions: MDA-MB-435, 48 h
[9] = Growth inhibition of human […] cells after 48 hrs by […] growth inhibition assay
HCT-116 [10] = experiment: Growth inhibition of human HCT116 cells assessed as cell growth at 1 uM after 48 hrs by SRB assay; conditions: HCT-116, 48 h, read-out: Activity
SF-268 = experiment: Growth inhibition of human SF268 cells assessed as cell growth at 100 uM after 48 hrs by SRB assay; conditions: SF-268, 48 h, read-out: Activity
UACC-62 = experiment: Growth inhibition of human UACC62 cells assessed as cell growth at 1 mM after 48 hrs by SRB assay; conditions: UACC-62, 48 h, read-out: Activity
CCRF-CEM = experiment: Growth inhibition of human CCRF-CEM cells assessed as cell growth at 10 uM after 48 hrs by SRB assay; conditions: read-out: Activity
HOP-92 [11] = experiment: Growth inhibition of human HOP92 cells assessed as cell growth at 1 mM after 48 hrs by SRB assay; conditions: HOP-92, 48 h, read-out: Activity
NCI-H226 [12] = experiment: Growth inhibition of human NCI-H226 cells assessed as cell growth at 10 uM after 48 hrs by SRB assay; conditions: NCI-H226, 48 h, read-out: Activity
NCI-H322M [13] = experiment: Growth inhibition of human NCI-H322M cells assessed as cell growth at 1 mM after 48 hrs by SRB assay; conditions: read-out: Activity
IGROV-1 = experiment: Growth inhibition of human IGROV1 cells assessed as cell growth at 1 uM after 48 hrs by SRB assay; conditions: IGROV-1, 48 h, read-out: Activity
M14 = experiment: Growth inhibition of human M14 cells assessed as cell growth at 1 mM after 48 hrs by SRB assay; conditions: M14, 48 h, read-out: Activity
SK-MEL-5 = experiment: Growth inhibition of human SK-MEL-5 cells assessed as cell growth at 1 uM after 48 hrs by SRB assay; conditions: SK-MEL-5, 48 h, read-out: Activity
NCI-H522 [14] = experiment: Growth inhibition of human NCI-H522 cells assessed as cell growth at 1 mM after 48 hrs by SRB assay; conditions: NCI-H522, 48 h, read-out: Activity
EKVX = experiment: Growth inhibition of human EKVX cells assessed as cell growth at 100 uM after 48 hrs by SRB assay; conditions: read-out: Activity
Malme-3M = experiment: Growth inhibition of human MALME-3M cells assessed as cell growth at 1 mM after 48 hrs by SRB assay; conditions: read-out: Activity
HCT-116 [15] = experiment: Growth inhibition of human HCT116 cells assessed as cell growth at 0.1 uM after 48 hrs by SRB assay; conditions: HCT-116, 48 h, read-out: Activity
SK-MEL-2 = experiment: Growth inhibition of human SK-MEL-2 cells after 48 hrs by […] growth inhibition assay; conditions: SK-MEL-2, 48 h
HOP-92 [16] = experiment: Growth inhibition of human HOP92 cells assessed as cell growth at 10 uM after 48 hrs by SRB assay; conditions: HOP-92, 48 h, read-out: Activity
SF-295 [17] = experiment: Growth inhibition of human SF295 cells assessed as cell growth at 1 uM after 48 hrs by SRB assay; conditions: SF-295, 48 h, read-out: Activity
RXF 393 [18] = experiment: Growth inhibition of human RXF393 cells assessed as cell growth at 1 mM after 48 hrs by SRB assay; conditions: RXF 393, 48 h, read-out: Activity
MOLT-4 = experiment: Growth inhibition of human MOLT4 cells assessed as cell growth at 10 uM after 48 hrs by SRB assay; conditions: MOLT-4, 48 h, read-out: Activity
MCF7 = experiment: Growth inhibition of human MCF7 cells assessed as cell growth at 10 uM after 48 hrs by SRB assay; conditions: MCF7, 48 h, read-out: Activity
DU-145 = experiment: Growth inhibition of human DU145 cells assessed as cell growth at 1 uM after 48 hrs by SRB assay; conditions: DU-145, 48 h, read-out: Activity
A498 [19] = experiment: Growth inhibition of human A498 cells assessed as cell growth at 100 uM after 48 hrs by SRB assay; conditions: A498, 48 h, read-out: Activity
[20] = read-out: LC50 (the source's name)
[21] = read-out: pLC50 (the source's name) (converted)

CNC(=O)NC[C@H]1O[C@@H](n2cnc3c(NC(=O)Nc4ccccc4)ncnc32)[C@H](O[Si](C)(C)C(C)(C)C)[C@@H]1CC(=O)N(C)OC
growth at 1000 µM (A498 [1]): -16%
growth at 1000 µM (HCT-116 [2]): 6%
growth at 1 µM (NCI-H522 [3]): 87%
growth at 100 µM (CAKI-1): 57%
GI50 (ACHN; read-out: GI50): 14.4 µM
CC50 (ACHN; [20]): > 100 µM
TGI (ACHN; read-out: TGI): > 100 µM
GI50 (ACHN; read-out: pGI50 (converted)): 14.5 µM
CC50 (ACHN; [21]): > 100 µM
TGI (ACHN; read-out: pTGI): > 100 µM
growth at 10 µM [4]: 82%
growth at 0.1 µM (RXF 393 [5]): 103%
growth at 1000 µM (SF-295 [6]): 20%
GI50 (TK-10; read-out: GI50): 20.6 µM
CC50 (TK-10; [20]): > 100 µM
TGI (TK-10; read-out: TGI): > 100 µM
GI50 (TK-10; read-out: pGI50 (converted)): 20.4 µM
CC50 (TK-10; [21]): > 100 µM
TGI (TK-10; read-out: pTGI (converted)): > 100 µM
growth at 100 µM (NCI-H226 [7]): 66%
GI50 (NCI-H322M [8]; read-out: GI50): > 100 µM
CC50 (NCI-H322M [8]; [20]): > 100 µM
TGI (NCI-H322M [8]; read-out: TGI): > 100 µM
GI50 (NCI-H322M [8]; read-out: pGI50 (converted)): > 100 µM
CC50 (NCI-H322M [8]; [21]): > 100 µM
TGI (NCI-H322M [8]; read-out: pTGI): > 100 µM
GI50 (MDA-MB-435; read-out: GI50): 10.9 µM
LC50 (MDA-MB-435; read-out: LC50): > 100 µM
TGI (MDA-MB-435; read-out: TGI): > 100 µM
GI50 (MDA-MB-435; read-out: pGI50 (converted)): 11 µM
LC50 (MDA-MB-435; read-out: pLC50 (converted)): > 100 µM
TGI (MDA-MB-435; read-out: pTGI (converted)): > 100 µM
GI50 ([9]; read-out: GI50): 1.58 µM
CC50 [9, 20]: > 100 µM
TGI ([9]; read-out: TGI): 5.4 µM
GI50 ([9]; read-out: pGI50 (converted)): 1.58 µM
CC50 [9, 21]: > 100 µM
TGI ([9]; read-out: pTGI (converted)): 5.37 µM
growth at 1 µM (HCT-116 [10]): 90%
growth at 100 µM (SF-268): 46%
growth at 1000 µM (UACC-62): 39%
growth at 10 µM (CCRF-CEM): 96%
growth at 1000 µM (HOP-92 [11]): -43%
growth at 10 µM (NCI-H226 [12]): 99%
growth at 1000 µM (NCI-H322M [13]): 73%
growth at 1 µM (IGROV-1): 89%
growth at 1000 µM (M14): 18%
growth at 1 µM (SK-MEL-5): 98%
growth at 1000 µM (NCI-H522 [14]): 31%
growth at 100 µM (EKVX): 60%
growth at 1000 µM (Malme-3M): 23%
growth at 0.1 µM (HCT-116 [15]): 93%
GI50 (SK-MEL-2; read-out: GI50): 14.9 µM
CC50 (SK-MEL-2; [20]): > 100 µM
TGI (SK-MEL-2; read-out: TGI): 83.1 µM
GI50 (SK-MEL-2; read-out: pGI50 (converted)): 14.8 µM
CC50 (SK-MEL-2; [21]): > 100 µM
TGI (SK-MEL-2; read-out: pTGI (converted)): 83.2 µM
growth at 10 µM (HOP-92 [16]): 67%
growth at 1 µM (SF-295 [17]): 93%
growth at 1000 µM (RXF 393 [18]): -36%
growth at 10 µM (MOLT-4): 78%
growth at 10 µM (MCF7): 96%
growth at 1 µM (DU-145): 112%
growth at 100 µM (A498 [19]): 24%

Source: ChEMBL document CHEMBL1681651, “A broad spectrum anticancer nucleoside with selective toxicity against human colon cells in vitro” (2011)
